Experimental data published in PubChem BioAssay (NCI).
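Cells were grown in 96-well plates and exposed to each compound for 48 hours at five concentrations; endpoints were interpolated linearly between bracketing concentrations, or set to the highest concentration if not reached. GI50 = concentration required for 50% inhibition of growth. TGI denotes the concentration required for complete inhibition of growth.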

Legend:
Test in all cases: DTP human tumour cell line panel, 48 h; in the data active means GI50 below about 0.43 µM; inactive means the rest
MOLT-4 leukemia = test system: MOLT-4 leukemia
A498 renal = test system: A498 renal
RPMI-8226 leukemia = test system: RPMI-8226 leukemia
UO-31 renal = test system: UO-31 renal
CCRF-CEM leukemia = test system: CCRF-CEM leukemia
HOP-92 NSCLC = test system: HOP-92 NSCLC
OVCAR-8 ovarian = test system: OVCAR-8 ovarian
T-47D breast = test system: T-47D breast
SNB-19 CNS = test system: SNB-19 CNS
LOX IMVI melanoma = test system: LOX IMVI melanoma
M14 melanoma = test system: M14 melanoma
K-562 leukemia = test system: K-562 leukemia
TK-10 renal = test system: TK-10 renal
HCT-116 colon = test system: HCT-116 colon
OVCAR-3 ovarian = test system: OVCAR-3 ovarian
NCI-H226 lung = test system: NCI-H226 lung
PC-3 prostate = test system: PC-3 prostate
NCI/ADR-RES ovarian = test system: NCI/ADR-RES ovarian
RXF 393 renal = test system: RXF 393 renal
HOP-62 NSCLC = test system: HOP-62 NSCLC
OVCAR-4 ovarian = test system: OVCAR-4 ovarian
HCT-15 colon = test system: HCT-15 colon
MDA-MB-435 = test system: MDA-MB-435
SF-295 CNS = test system: SF-295 CNS
SK-MEL-28 melanoma = test system: SK-MEL-28 melanoma
SNB-75 CNS = test system: SNB-75 CNS
NCI-H460 lung = test system: NCI-H460 lung
KM12 colon = test system: KM12 colon
SF-268 CNS = test system: SF-268 CNS
NCI-H23 lung = test system: NCI-H23 lung
HL-60(TB) leukemia = test system: HL-60(TB) leukemia
SK-OV-3 ovarian = test system: SK-OV-3 ovarian
786-0 renal = test system: 786-0 renal
NCI-H522 lung = test system: NCI-H522 lung
U251 CNS = test system: U251 CNS
EKVX NSCLC = test system: EKVX NSCLC
HT29 colon = test system: HT29 colon
DU-145 prostate = test system: DU-145 prostate
UACC-62 melanoma = test system: UACC-62 melanoma
SK-MEL-2 melanoma = test system: SK-MEL-2 melanoma
SW-620 colon = test system: SW-620 colon
SR leukemia = test system: SR leukemia
SK-MEL-5 melanoma = test system: SK-MEL-5 melanoma
A549 NSCLC = test system: A549 NSCLC
IGROV1 ovarian = test system: IGROV1 ovarian
SN12C renal = test system: SN12C renal
OVCAR-5 ovarian = test system: OVCAR-5 ovarian
SF-539 CNS = test system: SF-539 CNS
MDA-MB-231 breast = test system: MDA-MB-231 breast
HS 578T breast = test system: HS 578T breast
UACC-257 melanoma = test system: UACC-257 melanoma
MCF7 breast = test system: MCF7 breast
COLO 205 colon = test system: COLO 205 colon
ACHN renal = test system: ACHN renal
BT-549 breast = test system: BT-549 breast
HCC-2998 colon = test system: HCC-2998 colon
CAKI-1 renal = test system: CAKI-1 renal

Nc1ccc2c(c1)Cc1cc(Cl)c(Cl)cc1-2
4.51 µM: TGI (MDA-MB-435)
inactive: GI50 (MOLT-4 leukemia) > 100 µM | GI50 (A498 renal) 4.78 µM | GI50 (RPMI-8226 leukemia) 57.6 µM | GI50 (UO-31 renal) 6.01 µM | GI50 (CCRF-CEM leukemia) 7.73 µM | GI50 (HOP-92 NSCLC) 97.9 µM | GI50 (OVCAR-8 ovarian) > 100 µM | GI50 (T-47D breast) > 100 µM | GI50 (SNB-19 CNS) 5.96 µM | GI50 (LOX IMVI melanoma) 65.6 µM | GI50 (M14 melanoma) 3.55 µM | GI50 (K-562 leukemia) > 100 µM | GI50 (TK-10 renal) > 100 µM | GI50 (HCT-116 colon) 6.81 µM | GI50 (OVCAR-3 ovarian) 3.17 µM | GI50 (NCI-H226 lung) > 100 µM | GI50 (PC-3 prostate) > 100 µM | GI50 (NCI/ADR-RES ovarian) 62.2 µM | GI50 (RXF 393 renal) 6.07 µM | GI50 (HOP-62 NSCLC) > 100 µM | GI50 (OVCAR-4 ovarian) > 100 µM | GI50 (HCT-15 colon) 6.22 µM | GI50 (MDA-MB-435) 1.77 µM | GI50 (SF-295 CNS) 2.25 µM | GI50 (SK-MEL-28 melanoma) > 100 µM | GI50 (SNB-75 CNS) 67.8 µM | GI50 (NCI-H460 lung) 5.12 µM | GI50 (KM12 colon) 7.05 µM | GI50 (SF-268 CNS) > 100 µM | GI50 (NCI-H23 lung) > 100 µM | GI50 (HL-60(TB) leukemia) 55 µM | GI50 (SK-OV-3 ovarian) 8.03 µM | GI50 (786-0 renal) > 100 µM | GI50 (NCI-H522 lung) > 100 µM | GI50 (U251 CNS) 5.56 µM | GI50 (EKVX NSCLC) 1.94 µM | GI50 (HT29 colon) > 100 µM | GI50 (DU-145 prostate) 6.24 µM | GI50 (UACC-62 melanoma) 12.8 µM | GI50 (SK-MEL-2 melanoma) > 100 µM | GI50 (SW-620 colon) 5.43 µM | GI50 (SR leukemia) 26.9 µM | GI50 (SK-MEL-5 melanoma) 8.17 µM | GI50 (A549 NSCLC) 7.72 µM | GI50 (IGROV1 ovarian) 17.7 µM | GI50 (SN12C renal) 11.9 µM | GI50 (OVCAR-5 ovarian) > 100 µM | GI50 (SF-539 CNS) 57.3 µM | GI50 (MDA-MB-231 breast) 6.39 µM | GI50 (HS 578T breast) 5.79 µM | GI50 (UACC-257 melanoma) > 100 µM | GI50 (MCF7 breast) 0.562 µM | GI50 (COLO 205 colon) 22.2 µM | GI50 (ACHN renal) 7.06 µM | GI50 (BT-549 breast) > 100 µM | GI50 (HCC-2998 colon) 9.19 µM | GI50 (CAKI-1 renal) 3.76 µM
7.15 µM: TGI (SF-295 CNS)
> 100 µM: TGI (MOLT-4 leukemia) | TGI (A498 renal) | TGI (RPMI-8226 leukemia) | TGI (UO-31 renal) | TGI (CCRF-CEM leukemia) | TGI (HOP-92 NSCLC) | TGI (OVCAR-8 ovarian) | TGI (T-47D breast) | TGI (SNB-19 CNS) | TGI (LOX IMVI melanoma) | TGI (M14 melanoma) | TGI (K-562 leukemia) | TGI (TK-10 renal) | TGI (HCT-116 colon) | TGI (NCI-H226 lung) | TGI (PC-3 prostate) | TGI (NCI/ADR-RES ovarian) | TGI (RXF 393 renal) | TGI (HOP-62 NSCLC) | TGI (OVCAR-4 ovarian) | TGI (HCT-15 colon) | TGI (SK-MEL-28 melanoma) | TGI (SNB-75 CNS) | TGI (NCI-H460 lung) | TGI (KM12 colon) | TGI (SF-268 CNS) | TGI (NCI-H23 lung) | TGI (HL-60(TB) leukemia) | TGI (SK-OV-3 ovarian) | TGI (786-0 renal) | TGI (NCI-H522 lung) | TGI (U251 CNS) | TGI (HT29 colon) | TGI (DU-145 prostate) | TGI (UACC-62 melanoma) | TGI (SK-MEL-2 melanoma) | TGI (SW-620 colon) | TGI (SR leukemia) | TGI (SK-MEL-5 melanoma) | TGI (A549 NSCLC) | TGI (IGROV1 ovarian) | TGI (SN12C renal) | TGI (OVCAR-5 ovarian) | TGI (SF-539 CNS) | TGI (MDA-MB-231 breast) | TGI (HS 578T breast) | TGI (UACC-257 melanoma) | TGI (MCF7 breast) | TGI (COLO 205 colon) | TGI (ACHN renal) | TGI (BT-549 breast) | TGI (HCC-2998 colon) | TGI (CAKI-1 renal)
87.8 µM: TGI (OVCAR-3 ovarian)
8.82 µM: TGI (EKVX NSCLC)
